The values that follow come from patent publication US10294202B2, “Pyrrolidinones as herbicides” (FMC Corporation, priority 2013, dated 2019).

Holding throughout (test): Test C pre-/postemergence herbicide test
One experiment deals with velvetleaf. In kind it is in vivo, Abutilon theophrasti. In short, it runs like this: (§1)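 Herbicidal effect was judged by eye 13 to 15 days after treatment in the greenhouse, using a 0–100 scale against controls. Chemicals in a non-phytotoxic solvent with surfactant were sprayed onto planted loam/sand soil or onto plants 2 to 18 cm tall in a peat-based growing medium.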
A further experiment deals with blackgrass. Format: in vivo, Alopecurus myosuroides. The method, boiled down:
as §1

The subject of a further experiment is barnyardgrass. In kind it is in vivo, Echinochloa crus-galli. The note with it: Postemergence. The method, boiled down: as §1
For another experiment, the system named is foxtail, giant. In kind it is in vivo, Setaria faberii. In short, it runs like this: as §1
The next experiment concerns kochia. Format: in vivo, Kochia scoparia. The source says: Seeds of plant species selected from blackgrass (Alopecurus myosuroides), ryegrass, Italian (Italian ryegrass, Lolium multiflorum), wheat (winter wheat, Triticum aestivum), galium (catchweed bedstraw, Galium aparine), corn (Zea mays), crabgrass, large (large crabgrass, Digitaria sanguinalis), foxtail, giant (giant foxtail, Setaria faberii), johnsongrass (Sorghum halepense), lambsquarters (Chenopodium album), morningglory (Ipomoea coccinea), nutsedge, yellow (yellow nutsedge, Cyperus esculentus), pigweed (Amaranthus retroflexus), ragweed (common ragweed, Ambrosia elatior), soybean (Glycine max), barnyardgrass (Echinochloa crus-galli), oilseed rape (Brassica napus), waterhemp (common waterhemp, Amaranthus rudis), kochia (Kochia scoparia), oat, wild (wild oat, Avena fatua), surinam grass (Brachiaria decumbens), foxtail, green (green foxtail, Setaria viridis), goosegrass (Eleusine indica), bromegrass, downy (downy bromegrass, Bromus tectorum), nightshade (eastern black nightshade, Solanum ptycanthum), cocklebur (common cocklebur, Xanthium strumarium), cupgrass, woolly (woolly cupgrass, Eriochloa villosa), bermudagrass (Cynodon dactylon), sunflower, (common oilseed sunflower, Helianthus annuus), Russian thistle (Salsola kali) and velvetleaf (Abutilon theophrasti) were planted into a blend of loam soil and sand and treated preemergence with test chemicals formulated in a non-phytotoxic solvent mixture which included a surfactant. At the same time, plants selected from these crop and weed species and also barley (winter barley, Hordeum vulgare), […]), chickweed (common chickweed, Stellaria media), deadnettle (henbit deadnettle, Lamium amplexicaule), and canarygrass (littleseed canarygrass, Phalaris minor) were planted in pots containing Redi-Earth® planting medium (Scotts Company, 14111 Scottslawn Road, Marysville, Ohio 43041) comprising spaghnum peat moss, vermiculite, wetting agent and starter nutrients and treated with postemergence applications of test chemicals formulated in the same manner. Plants ranged in height from 2 to 18 cm (1- to 4-leaf stage) for postemergence treatments. Treated plants and controls were maintained in a greenhouse for 13 to 15 days, after which time all species were compared to controls and visually evaluated. Plant response ratings, summarized in Table C, are based on a scale of 0 to 100 where 0 is no effect and 100 is complete control. A dash (-) response means no test result.

A further experiment relates to galium. Format: in vivo, Galium aparine. In short, it runs like this: as §1
[1] abbreviates: Postemergence, 31 g ai/ha, scale 0 (no effect) to 100 (complete control).
Where [2] appears, read: Postemergence, 62 g ai/ha, scale 0 to 100 (0 no effect, 100 complete control).
The mark [3] stands for this setting: Postemergence, 125 g ai/ha, scale 0 to 100 (0 no effect, 100 complete control).
Setting [4] is: Postemergence, 250 g ai/ha, scale 0 to 100 (0 no effect, 100 complete control).
The mark [5] stands for this setting: Postemergence, 16 g ai/ha, scale 0 to 100 (0 no effect, 100 complete control).
The mark [6] stands for this setting: Preemergence, 62 g ai/ha, scale 0 to 100.
Where [7] appears, read: Preemergence, 125 g ai/ha, scale 0 to 100 (0 no effect, 100 complete control).
Where [8] appears, read: Preemergence, 16 g ai/ha, scale 0 to 100.
The mark [9] stands for this setting: Preemergence, 31 g ai/ha, scale 0 to 100 (0 no effect, 100 complete control).
Setting [10] is: Preemergence, 31 g ai/ha, scale 0 to 100, 0 is no effect and 100 is complete control.

In the case of `Cc1c(F)cccc1NC(=O)C1C(=O)NCC1c1ccc(F)c(F)c1` (racemic) [Compound 106], the “Plant response rating, Velvetleaf” value in the experiment with velvetleaf (setting [1]) was 0; in the experiment with velvetleaf (setting [2]), 0; in the experiment on velvetleaf (setting [3]), 5; in the experiment with velvetleaf (setting [4]), 5. In addition, the “Plant response rating, Blackgrass” value with blackgrass (setting [1]), in the experiment with blackgrass (setting [2]), in the experiment on blackgrass (setting [3]) and with blackgrass (setting [4]) was 0 each time. Further, the “Plant response rating, Barnyardgrass” value was 0 in the experiment on barnyardgrass (31 g ai/ha, scale 0 (no effect) to 100 (complete control)); 0 with barnyardgrass (62 g ai/ha, scale 0 to 100 (0 no effect, 100 complete control)); 0 with barnyardgrass (125 g ai/ha, scale 0 to 100 (0 no effect, 100 complete control)); 30 with barnyardgrass (250 g ai/ha, scale 0 to 100 (0 no effect, 100 complete control)). Moreover, the “Plant response rating, Foxtail, Giant” value was 50 with foxtail, giant (setting [1]); 35 in the experiment with foxtail, giant (setting [2]); 45 in the experiment on foxtail, giant (setting [3]); 50 in the experiment on foxtail, giant (setting [4]). Besides, the “Plant response rating, Kochia” value turned out to be 0 in the experiment with kochia (setting [1]), 40 with kochia (setting [2]), 30 in the experiment on kochia (setting [3]) and 35 in the experiment on kochia (setting [4]). Further, the “Plant response rating, Galium” value in the experiment with galium (setting [1]) turned out to be 0; in the experiment on galium (setting [2]), 0; in the experiment with galium (setting [3]), 50; with galium (setting [4]) it was 35.
In the case of `O=C1NCC(c2cc(F)c(F)c(F)c2)C1C(=O)Nc1cccc(F)c1F` (centres unmarked) [Compound 48], the “Plant response rating, Velvetleaf” value with velvetleaf (setting [5]) was 0; with velvetleaf (setting [1]), 0; in the experiment on velvetleaf (setting [2]) it was 15; with velvetleaf (setting [3]), 35; in the experiment with velvetleaf (setting [6]) it was 0; in the experiment on velvetleaf (setting [7]) it was 0. The “Plant response rating, Velvetleaf” value in the experiment on velvetleaf (setting [8]) is reported as 0. The “Plant response rating, Blackgrass” value in the experiment on blackgrass (setting [5]) stood at 0; with blackgrass (setting [1]) it was 0; in the experiment on blackgrass (setting [2]), 0; in the experiment with blackgrass (setting [3]) it was 0; with blackgrass (setting [6]), 20; with blackgrass (setting [7]), 50. In the experiment on blackgrass (setting [8]), the “Plant response rating, Blackgrass” value worked out at 0. Moreover, in the experiment with blackgrass (setting [9]), the “Blackgrass plant response rating” value came to 0. In addition, the “Plant response rating, Foxtail, Giant” value in the experiment with foxtail, giant (setting [5]) is recorded as 0; in the experiment with foxtail, giant (setting [1]) it was 5; with foxtail, giant (setting [2]), 20; in the experiment with foxtail, giant (setting [3]), 40; with foxtail, giant (setting [6]), 85; with foxtail, giant (setting [7]), 95. For the same compound, in the experiment with foxtail, giant (setting [8]), the “Plant response rating, Foxtail, Giant” value is listed as 40. Also, in the experiment with foxtail, giant (setting [9]), the “Foxtail, Giant plant response rating” value stood at 80. The “Plant response rating, Kochia” value amounted to 0 with kochia (setting [5]); 10 in the experiment on kochia (setting [1]); 10 in the experiment with kochia (setting [2]); 20 in the experiment with kochia (setting [3]); 10 in the experiment with kochia (setting [6]); 10 in the experiment on kochia (setting [7]). The “Plant response rating, Kochia” value in the experiment with kochia (setting [8]) is 0. The “Plant response rating, Galium” value is reported as 30 in the experiment with galium (setting [6]), 60 in the experiment with galium (setting [7]) and 0 in the experiment with galium (setting [8]). Further, the “Galium plant response rating” value in the experiment with galium (setting [9]) was 0.
For `O=C1NCC(c2cc(F)c(F)cc2F)C1C(=O)Nc1cccc(F)c1F` (centres unmarked) [Compound 50], the “Plant response rating, Velvetleaf” value in the experiment on velvetleaf (setting [1]) is reported as 0; in the experiment with velvetleaf (setting [2]) it was 15; in the experiment on velvetleaf (setting [3]), 25; in the experiment on velvetleaf (setting [4]) it was 45. Further, the “Plant response rating, Blackgrass” value in the experiment on blackgrass (setting [1]), in the experiment on blackgrass (setting [2]), with blackgrass (setting [3]) and with blackgrass (setting [4]) was 0 each time. Further, the “Plant response rating, Foxtail, Giant” value in the experiment on foxtail, giant (setting [1]) is recorded as 0; in the experiment with foxtail, giant (setting [2]), 5; in the experiment on foxtail, giant (setting [3]), 5; in the experiment with foxtail, giant (setting [4]), 10. Further, the “Plant response rating, Kochia” value in the experiment with kochia (setting [1]), with kochia (setting [2]), in the experiment on kochia (setting [3]) and in the experiment on kochia (setting [4]) was 0 each time.
As for `O=C1NCC(c2ccc(F)c(Cl)c2)C1C(=O)Nc1ccccc1F` (centres unmarked) [Compound 60], the “Plant response rating, Velvetleaf” value is listed as 0 with velvetleaf (setting [1]); 0 with velvetleaf (setting [2]); 5 in the experiment on velvetleaf (setting [3]); 0 in the experiment on velvetleaf (setting [6]); 0 in the experiment on velvetleaf (setting [7]). For the same compound, the “Plant response rating, Blackgrass” value is 0 with blackgrass (setting [1]); 0 with blackgrass (setting [2]); 0 in the experiment with blackgrass (setting [3]); 10 with blackgrass (setting [6]); 40 with blackgrass (setting [7]). Moreover, the “Blackgrass plant response rating” value in the experiment with blackgrass (setting [9]) was determined as 0. For the same compound, the “Plant response rating, Foxtail, Giant” value in the experiment on foxtail, giant (setting [1]) was determined as 0; in the experiment on foxtail, giant (setting [2]), 15; in the experiment with foxtail, giant (setting [3]), 30; in the experiment on foxtail, giant (setting [6]), 85; in the experiment with foxtail, giant (setting [7]), 90. The “Foxtail, Giant plant response rating” value with foxtail, giant (setting [9]) was 70. Besides, the “Plant response rating, Kochia” value stood at 0 with kochia (setting [1]); 10 with kochia (setting [2]); 45 in the experiment with kochia (setting [3]); 0 in the experiment with kochia (setting [6]); 0 with kochia (setting [7]). Moreover, the “Plant response rating, Galium” value is 0 in the experiment with galium (setting [6]) and 5 in the experiment with galium (setting [7]). The “Galium plant response rating” value in the experiment on galium (setting [9]) is 0.
On to `O=C1NCC(c2cccc(OC(F)(F)F)c2)C1C(=O)Nc1ccccc1F` (centres unmarked) [Compound 69], for which the “Velvetleaf plant response rating” value in the experiment with velvetleaf (setting [10]) came to 30. The “Plant response rating, Velvetleaf” value in the experiment with velvetleaf (setting [6]) and with velvetleaf (setting [7]) was 30 in each case. The “Plant response rating (scale of 0 to 100), Velvetleaf” value in the experiment with velvetleaf (Preemergence, 250 g ai/ha) amounted to 30. Moreover, the “Blackgrass plant response rating” value in the experiment with blackgrass (setting [10]) amounted to 0. The entries for the “Plant response rating, Blackgrass” value with blackgrass (setting [6]) and with blackgrass (setting [7]) were 5 and 30, respectively. Besides, in the experiment on blackgrass (Preemergence, 250 g ai/ha), the “Plant response rating (scale of 0 to 100), Blackgrass” value was found to be 35. Besides, the “Foxtail, Giant plant response rating” value with foxtail, giant (setting [10]) was 75. Moreover, the “Plant response rating, Foxtail, Giant” value in the experiment on foxtail, giant (setting [6]) turned out to be 85; with foxtail, giant (setting [7]), 85. Besides, the “Plant response rating (scale of 0 to 100), Foxtail, Giant” value in the experiment on foxtail, giant (Preemergence, 250 g ai/ha) is listed as 90. Further, the “Kochia plant response rating” value in the experiment with kochia (setting [10]) turned out to be 0. Moreover, the “Plant response rating, Kochia” value in the experiment with kochia (setting [6]) and in the experiment with kochia (setting [7]) was 0 throughout. In the experiment on kochia (Preemergence, 250 g ai/ha), the “Plant response rating (scale of 0 to 100), Kochia” value is given as 25. Besides, the “Galium plant response rating” value in the experiment with galium (setting [10]) came out at 0. In addition, the figures for the “Plant response rating, Galium” value with galium (setting [6]) and in the experiment on galium (setting [7]) were 0 and 5, respectively. Moreover, the “Plant response rating (scale of 0 to 100), Galium” value with galium (Preemergence, 250 g ai/ha) is 75.
